Laboratory results reported in patent US20100160454A1, “ANTIMICROBIAL AGENTS, COMPOSITIONS AND PRODUCTS CONTAINING THE SAME, AND METHODS OF USING THE COMPOSITIONS AND PRODUCTS” (Eastman Chemical Company, priority 2008, published 2010).

Assays:
Experiment in all cases: Challenge testing against pathogenic fungi, growth rating in broth tubes
Assay type in all cases: cell-based
Set-up in all cases: key: 0: No visible growth; 1: Some growth in tube; 2: Moderate growth in tube; 3: Good growth in tube; 4: Extreme growth in tube
[1] = system: Microsporum canis (ATTC 9084)
Description: (§1) Both Microsporum canis and Trichophyton rubrum were grown on Sabouraud dextrose broth, while Malassezia fufur was grown in Sabouraud dextrose broth supplemented with 2% (v/v) of olive oil and 0.2% (v/v) of Tween™ 80; incubation was at 22°±2° C. under continuous agitation by stirring for 10 days. The organisms were grown to a density of between 1.0×10^3 to 1.0×10^4 cfu/g. The actual inoculation cell density of these challenges were determined by diluting in sterile buffer water and (spread-plate method) plating for enumeration.
(§2) Challenge organisms were used to inoculate tubes of 1,4-CHDM-D90 test concentrations prepared in Sabouraud dextrose broth (or Sabouraud dextrose broth supplemented with olive oil-Tween™ 80 with M. furfur). The inoculations were in the amount of 1.5 mL aliquots of each culture with static incubation at 22±2° C. Subcultures were made at 3-, 14- and 30-day increments. All challenges were conducted in triplicate. In the case of M. canis, the growth response was assessed by the visual presence/absence of growth in the tubes; in the case of T. rubrum, a respiratory (redox) dye (0.2% w/v aqueous INT solution: 2-[4-iodophenyl)-3-4-nitrophenyl]-5-phenyl tetrazolium chloride) was added to the tubes, turning red if the organism was viable; and, finally, in the case of M. furfur, the growth response was assessed based upon pellicle formation in the tubes at the meniscus. The test formulations and challenge test results, as well as 30-day MICs (Minimum Inhibitory Concentration), are in Tables 7-9 for the three organisms using the following growth rating system:
(§3) • 0: No visible growth • 1: Some growth in tube • 2: Moderate growth in tube • 3: Good growth in tube • 4: Extreme growth in tube

[2] = system: Trichophyton rubrum (ATCC 10218)
Description: as §1, §2, §3

[3] = system: Malassezia furfur (ATCC 96809)
Description: as §1, §2, §3

Structure (SMILES)	M. canis growth rating, 3 day ([1]; 0.5% weight/volume)	M. canis growth rating, 14 day ([1]; 0.5% weight/volume)	M. canis growth rating, 30 day ([1]; 0.5% weight/volume)	M. canis growth rating, 3 day ([1]; 1.25% weight/volume)	M. canis growth rating, 14 day ([1]; 1.25% weight/volume)	M. canis growth rating, 30 day ([1]; 1.25% weight/volume)	M. canis growth rating, 3 day ([1]; 2.5% weight/volume)	M. canis growth rating, 14 day ([1]; 2.5% weight/volume)	M. canis growth rating, 30 day ([1]; 2.5% weight/volume)	M. canis growth rating, 3 day ([1]; 5.0% weight/volume)	M. canis growth rating, 14 day ([1]; 5.0% weight/volume)	M. canis growth rating, 30 day ([1]; 5.0% weight/volume)	T. rubrum growth rating, 3 day ([2]; 0.5% weight/volume)	T. rubrum growth rating, 14 day ([2]; 0.5% weight/volume)	T. rubrum growth rating, 30 day ([2]; 0.5% weight/volume)	T. rubrum growth rating, 3 day ([2]; 1.25% weight/volume)	T. rubrum growth rating, 14 day ([2]; 1.25% weight/volume)	T. rubrum growth rating, 30 day ([2]; 1.25% weight/volume)	T. rubrum growth rating, 3 day ([2]; 2.5% weight/volume)	T. rubrum growth rating, 14 day ([2]; 2.5% weight/volume)	further results
OCC1CCCCC1CO (stereo not drawn) [1,2-CHDM, 1,2-cyclohexanedimethanol]	2	1	1	1	0	0	0	0	0	0	0	0	0	0	0	0	0	0	1	0	T. rubrum growth rating, 30 day ([2]; 2.5% weight/volume): 0; T. rubrum growth rating, 3 day ([2]; 5.0% weight/volume): 0; T. rubrum growth rating, 14 day ([2]; 5.0% weight/volume): 0; T. rubrum growth rating, 30 day ([2]; 5.0% weight/volume): 0; M. furfur growth rating, 3 day ([3]; 0.5% weight/volume): 0; M. furfur growth rating, 14 day ([3]; 0.5% weight/volume): 0; M. furfur growth rating, 30 day ([3]; 0.5% weight/volume): 0; M. furfur growth rating, 3 day ([3]; 1.25% weight/volume): 0; M. furfur growth rating, 14 day ([3]; 1.25% weight/volume): 0; M. furfur growth rating, 30 day ([3]; 1.25% weight/volume): 0; M. furfur growth rating, 3 day ([3]; 2.5% weight/volume): 0; M. furfur growth rating, 14 day ([3]; 2.5% weight/volume): 0; M. furfur growth rating, 30 day ([3]; 2.5% weight/volume): 0; M. furfur growth rating, 3 day ([3]; 5.0% weight/volume): 0; M. furfur growth rating, 14 day ([3]; 5.0% weight/volume): 0; M. furfur growth rating, 30 day ([3]; 5.0% weight/volume): 0
OCC1CCCC(CO)C1 (stereo not drawn) [1,3-CHDM, 1,3-cyclohexanedimethanol]	2	1	1	2	1	1	0	0	0	2	1	1	0	2	1	1	0	0	0	0	T. rubrum growth rating, 30 day ([2]; 2.5% weight/volume): 0; T. rubrum growth rating, 3 day ([2]; 5.0% weight/volume): 2; T. rubrum growth rating, 14 day ([2]; 5.0% weight/volume): 0; T. rubrum growth rating, 30 day ([2]; 5.0% weight/volume): 0; M. furfur growth rating, 3 day ([3]; 0.5% weight/volume): 0; M. furfur growth rating, 14 day ([3]; 0.5% weight/volume): 1; M. furfur growth rating, 30 day ([3]; 0.5% weight/volume): 3; M. furfur growth rating, 3 day ([3]; 1.25% weight/volume): 0; M. furfur growth rating, 14 day ([3]; 1.25% weight/volume): 2; M. furfur growth rating, 30 day ([3]; 1.25% weight/volume): 3; M. furfur growth rating, 3 day ([3]; 2.5% weight/volume): 0; M. furfur growth rating, 14 day ([3]; 2.5% weight/volume): 0; M. furfur growth rating, 30 day ([3]; 2.5% weight/volume): 0; M. furfur growth rating, 3 day ([3]; 5.0% weight/volume): 0; M. furfur growth rating, 14 day ([3]; 5.0% weight/volume): 2; M. furfur growth rating, 30 day ([3]; 5.0% weight/volume): 3
OCC1CCC(CO)CC1 (stereo not drawn) [1,4-CHDM, 1,4-cyclohexanedimethanol]	2	1	1	2	1	1	2	0	0	0	0	0	1	1	1	0	0	0	0	0	T. rubrum growth rating, 30 day ([2]; 2.5% weight/volume): 0; T. rubrum growth rating, 3 day ([2]; 5.0% weight/volume): 1; T. rubrum growth rating, 14 day ([2]; 5.0% weight/volume): 0; T. rubrum growth rating, 30 day ([2]; 5.0% weight/volume): 0; M. furfur growth rating, 3 day ([3]; 0.5% weight/volume): 0; M. furfur growth rating, 14 day ([3]; 0.5% weight/volume): 1; M. furfur growth rating, 30 day ([3]; 0.5% weight/volume): 2; M. furfur growth rating, 3 day ([3]; 1.25% weight/volume): 0; M. furfur growth rating, 14 day ([3]; 1.25% weight/volume): 0; M. furfur growth rating, 30 day ([3]; 1.25% weight/volume): 0; M. furfur growth rating, 3 day ([3]; 2.5% weight/volume): 0; M. furfur growth rating, 14 day ([3]; 2.5% weight/volume): 0; M. furfur growth rating, 30 day ([3]; 2.5% weight/volume): 0; M. furfur growth rating, 3 day ([3]; 5.0% weight/volume): 0; M. furfur growth rating, 14 day ([3]; 5.0% weight/volume): 0; M. furfur growth rating, 30 day ([3]; 5.0% weight/volume): 0
O=C([O-])CN(CCN(CC(=O)[O-])CC(=O)O)CC(=O)O.[Na+].[Na+] [EDTA, Na2EDTA]	2	1	0	2	1	0	2	1	0	2	0	0	1	0	0	0	0	0	1	0	T. rubrum growth rating, 30 day ([2]; 2.5% weight/volume): 0; T. rubrum growth rating, 3 day ([2]; 5.0% weight/volume): 1; T. rubrum growth rating, 14 day ([2]; 5.0% weight/volume): 0; T. rubrum growth rating, 30 day ([2]; 5.0% weight/volume): 0; M. furfur growth rating, 3 day ([3]; 0.5% weight/volume): 0; M. furfur growth rating, 14 day ([3]; 0.5% weight/volume): 0; M. furfur growth rating, 30 day ([3]; 0.5% weight/volume): 0; M. furfur growth rating, 3 day ([3]; 1.25% weight/volume): 0; M. furfur growth rating, 14 day ([3]; 1.25% weight/volume): 0; M. furfur growth rating, 30 day ([3]; 1.25% weight/volume): 0; M. furfur growth rating, 3 day ([3]; 2.5% weight/volume): 0; M. furfur growth rating, 14 day ([3]; 2.5% weight/volume): 0; M. furfur growth rating, 30 day ([3]; 2.5% weight/volume): 0; M. furfur growth rating, 3 day ([3]; 5.0% weight/volume): 0; M. furfur growth rating, 14 day ([3]; 5.0% weight/volume): 0; M. furfur growth rating, 30 day ([3]; 5.0% weight/volume): 0
CC(O)CO (stereo not drawn) [PG, propylene glycol]	2	1	2	2	1	1	1	1	2	1	1	2	0	1	1	1	0	1	1	0	T. rubrum growth rating, 30 day ([2]; 2.5% weight/volume): 1; T. rubrum growth rating, 3 day ([2]; 5.0% weight/volume): 1; T. rubrum growth rating, 14 day ([2]; 5.0% weight/volume): 0; T. rubrum growth rating, 30 day ([2]; 5.0% weight/volume): 1; M. furfur growth rating, 3 day ([3]; 0.5% weight/volume): 0; M. furfur growth rating, 14 day ([3]; 0.5% weight/volume): 3; M. furfur growth rating, 30 day ([3]; 0.5% weight/volume): 3; M. furfur growth rating, 3 day ([3]; 1.25% weight/volume): 0; M. furfur growth rating, 14 day ([3]; 1.25% weight/volume): 3; M. furfur growth rating, 30 day ([3]; 1.25% weight/volume): 3; M. furfur growth rating, 3 day ([3]; 2.5% weight/volume): 0; M. furfur growth rating, 14 day ([3]; 2.5% weight/volume): 3; M. furfur growth rating, 30 day ([3]; 2.5% weight/volume): 3; M. furfur growth rating, 3 day ([3]; 5.0% weight/volume): 0; M. furfur growth rating, 14 day ([3]; 5.0% weight/volume): 0; M. furfur growth rating, 30 day ([3]; 5.0% weight/volume): 3
CC1(C)C(O)C(C)(C)C1O (stereo not drawn) [TMCBD, 2,2,4,4-tetramethyl-1,3-cyclobutanediol]	2	1	1	2	1	0	2	1	1	2	1	1	1	1	0	0	0	1	0	0	T. rubrum growth rating, 30 day ([2]; 2.5% weight/volume): 0; T. rubrum growth rating, 3 day ([2]; 5.0% weight/volume): 0; T. rubrum growth rating, 14 day ([2]; 5.0% weight/volume): 0; T. rubrum growth rating, 30 day ([2]; 5.0% weight/volume): 0; M. furfur growth rating, 3 day ([3]; 0.5% weight/volume): 0; M. furfur growth rating, 14 day ([3]; 0.5% weight/volume): 1; M. furfur growth rating, 30 day ([3]; 0.5% weight/volume): 2; M. furfur growth rating, 3 day ([3]; 1.25% weight/volume): 0; M. furfur growth rating, 14 day ([3]; 1.25% weight/volume): 1; M. furfur growth rating, 30 day ([3]; 1.25% weight/volume): 2; M. furfur growth rating, 3 day ([3]; 2.5% weight/volume): 0; M. furfur growth rating, 14 day ([3]; 2.5% weight/volume): 0; M. furfur growth rating, 30 day ([3]; 2.5% weight/volume): 0; M. furfur growth rating, 3 day ([3]; 5.0% weight/volume): 0; M. furfur growth rating, 14 day ([3]; 5.0% weight/volume): 0; M. furfur growth rating, 30 day ([3]; 5.0% weight/volume): 0
